According to patent publication US20160159789A1, “SUBSTITUTED PYRAZOLOPYRIDINES” (BAYER PHARMA AKTIENGESELLSCHAFT, priority 2013, published 2016):

Molecular target: T1, human full-length MKNK1 (Homo sapiens, UniProt Q9BUB5, T385D)
T1 construct: purchased Carna Biosciences 02-145; host or cells: insect cells (baculovirus expression system)
Assay: MKNK1 kinase high ATP assay (TR-FRET)
Type: biochemical
Conditions: high ATP (2 mM final), 15 min preincubation with enzyme, GST-MKNK1 (T344D)
How it was run: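 GST-tagged full-length human MKNK1 from insect cells, preincubated 15 min with compound at 22° C in HEPES pH 7.5/MgCl2/DTT buffer, then reacted 30 min with 2 mM ATP and 0.06 μM biotinylated peptide (final). Phosphopeptide detected by TR-FRET (anti-pS6 pSer236/Eu-ProteinG, streptavidin-XL665), 665/620 ratio normalised to no-enzyme and no-inhibitor controls.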

T1 sequence (Q9BUB5 1-424 isoform Q9BUB5-2 T344D): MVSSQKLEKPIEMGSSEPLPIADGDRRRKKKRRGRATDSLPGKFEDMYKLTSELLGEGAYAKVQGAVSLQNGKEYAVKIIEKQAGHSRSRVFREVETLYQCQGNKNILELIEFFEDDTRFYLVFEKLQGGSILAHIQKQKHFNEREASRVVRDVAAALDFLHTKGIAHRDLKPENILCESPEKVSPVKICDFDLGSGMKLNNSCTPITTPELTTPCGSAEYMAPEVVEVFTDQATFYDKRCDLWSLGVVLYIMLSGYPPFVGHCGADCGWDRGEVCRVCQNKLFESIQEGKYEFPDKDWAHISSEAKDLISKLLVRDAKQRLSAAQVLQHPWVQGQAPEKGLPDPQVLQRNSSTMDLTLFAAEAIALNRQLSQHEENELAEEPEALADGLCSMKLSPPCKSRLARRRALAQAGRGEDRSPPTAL

Structure (SMILES)	IC50 [nM]
CN(C)[C@@H]1CCN(C(=O)[C@H]2CCc3c(sc4ncnc(Nc5cc6cn[nH]c6cn5)c34)C2)C1 [Example 84, [(3R)-3-(Dimethylamino)pyrrolidin-1-yl][(7S)-4-(1H-pyrazolo[3,4-c]pyridin-5-ylamino)-5,6,7,8-tetrahydro[1]benzothieno[2,3-d]pyrimidin-7-yl]methanone]	3.6
CN(C)[C@H]1CCN(C(=O)[C@H]2CCc3c(sc4ncnc(Nc5cc6cn[nH]c6cn5)c34)C2)C1 [Example 85, [(3S)-3-(Dimethylamino)pyrrolidin-1-yl][(7S)-4-(1H-pyrazolo[3,4-c]pyridin-5-ylamino)-5,6,7,8-tetrahydro[1]benzothieno[2,3-d]pyrimidin-7-yl]methanone]	4.5
O=C([C@H]1CCc2c(sc3ncnc(Nc4cc5cn[nH]c5cn4)c23)C1)N1CCOCC1 [Example 86, Morpholin-4-yl [(7S)-4-(1H-pyrazolo[3,4-c]pyridin-5-ylamino)-5,6,7,8-tetrahydro[1]benzothieno[2,3-d]pyrimidin-7-yl]methanone]	7.1
C[C@H]1COCCN1C(=O)[C@H]1CCc2c(sc3ncnc(Nc4cc5cn[nH]c5cn4)c23)C1 [Example 87, [(3S)-3-Methylmorpholin-4-yl][(7S)-4-(1H-pyrazolo[3,4-c]pyridin-5-ylamino)-5,6,7,8-tetrahydro[1]benzothieno[2,3-d]pyrimidin-7-yl]methanone]	10.5
C[C@@H]1COCCN1C(=O)[C@H]1CCc2c(sc3ncnc(Nc4cc5cn[nH]c5cn4)c23)C1 [Example 88, [(3R)-3-Methylmorpholin-4-yl][(7S)-4-(1H-pyrazolo[3,4-c]pyridin-5-ylamino)-5,6,7,8-tetrahydro[1]benzothieno[2,3-d]pyrimidin-7-yl]methanone]	8
C[C@@H]1CN(C(=O)[C@H]2CCc3c(sc4ncnc(Nc5cc6cn[nH]c6cn5)c34)C2)C[C@H](C)O1 [Example 89, [(2R,6S)-2,6-Dimethylmorpholin-4-yl][(7S)-4-(1H-pyrazolo[3,4-c]pyridin-5-ylamino)-5,6,7,8-tetrahydro[1]benzothieno[2,3-d]pyrimidin-7-yl]methanone]	5.9
CN1CCN(C(=O)[C@H]2CCc3c(sc4ncnc(Nc5cc6cn[nH]c6cn5)c34)C2)CC1 [Example 90, (4-Methylpiperazin-1-yl)[(7S)-4-(1H-pyrazolo[3,4-c]pyridin-5-ylamino)-5,6,7,8-tetrahydro[1]benzothieno[2,3-d]pyrimidin-7-yl]methanone]	5.2
CN(C)C1CCN(C(=O)[C@H]2CCc3c(sc4ncnc(Nc5cc6cn[nH]c6cn5)c34)C2)CC1 [Example 91, [4-(Dimethylamino)piperidin-1-yl][(7S)-4-(1H-pyrazolo[3,4-c]pyridin-5-ylamino)-5,6,7,8-tetrahydro[1]benzothieno[2,3-d]pyrimidin-7-yl]methanone]	3.1
CCN(C)C(=O)[C@H]1CCc2c(sc3ncnc(Nc4cnc5[nH]ncc5c4)c23)C1 [Example 92, (7S)—N-Ethyl-N-methyl-4-(1H-pyrazolo[3,4-b]pyridin-5-ylamino)-5,6,7,8-tetrahydro[1]benzothieno[2,3-d]pyrimidine-7-carboxamide]	15.4
CCCN(C)C(=O)[C@H]1CCc2c(sc3ncnc(Nc4cnc5[nH]ncc5c4)c23)C1 [Example 93, (7S)—N-Methyl-N-propyl-4-(1H-pyrazolo[3,4-b]pyridin-5-ylamino)-5,6,7,8-tetrahydro[1]benzothieno[2,3-d]pyrimidine-7-carboxamide]	13.5
CN(CCC(F)(F)F)C(=O)[C@H]1CCc2c(sc3ncnc(Nc4cnc5[nH]ncc5c4)c23)C1 [Example 94, (7S)—N-Methyl-4-(1H-pyrazolo[3,4-b]pyridin-5-ylamino)-N-(3,3,3-trifluoropropyl)-5,6,7,8-tetrahydro[1]benzothieno[2,3-d]pyrimidine-7-carboxamide]	8.2
CC(C)N(C)C(=O)[C@H]1CCc2c(sc3ncnc(Nc4cnc5[nH]ncc5c4)c23)C1 [Example 95, (7S)—N-Methyl-N-(propan-2-yl)-4-(1H-pyrazolo[3,4-b]pyridin-5-ylamino)-5,6,7,8-tetrahydro[1]benzothieno[2,3-d]pyrimidine-7-carboxamide]	18
COCCN(C)C(=O)[C@H]1CCc2c(sc3ncnc(Nc4cnc5[nH]ncc5c4)c23)C1 [Example 96, (7S)—N-(2-Methoxyethyl)-N-methyl-4-(1H-pyrazolo[3,4-b]pyridin-5-ylamino)-5,6,7,8-tetrahydro[1]benzothieno[2,3-d]pyrimidine-7-carboxamide]	18.8
O=C([C@H]1CCc2c(sc3ncnc(Nc4cnc5[nH]ncc5c4)c23)C1)N1CCC1 [Example 97, Azetidin-1-yl[(7S)-4-(1H-pyrazolo[3,4-b]pyridin-5-ylamino)-5,6,7,8-tetrahydro[1]benzothieno[2,3-d]pyrimidin-7-yl]methanone]	47.6
O=C([C@H]1CCc2c(sc3ncnc(Nc4cnc5[nH]ncc5c4)c23)C1)N1CC2(COC2)C1 [Example 98, 2-Oxa-6-azaspiro[3.3]hept-6-yl[(7S)-4-(1H-pyrazolo[3,4-b]pyridin-5-ylamino)-5,6,7,8-tetrahydro[1]benzothieno[2,3-d]pyrimidin-7-yl]methanone]	15.8
N#CC1CN(C(=O)[C@H]2CCc3c(sc4ncnc(Nc5cnc6[nH]ncc6c5)c34)C2)C1 [Example 99, 1-{[(7S)-4-(1H-Pyrazolo[3,4-b]pyridin-5-ylamino)-5,6,7,8-tetrahydro[1]benzothieno[2,3-d]pyrimidin-7-yl]carbonyl}azetidine-3-carbonitrile]	14.5
CN(C)[C@H]1CCN(C(=O)[C@H]2CCc3c(sc4ncnc(Nc5cnc6[nH]ncc6c5)c34)C2)C1 [Example 100, [(3S)-3-(Dimethylamino)pyrrolidin-1-yl][(7S)-4-(1H-pyrazolo[3,4-b]pyridin-5-ylamino)-5,6,7,8-tetrahydro[1]benzothieno[2,3-d]pyrimidin-7-yl]methanone]	3.7
CN(C)[C@@H]1CCN(C(=O)[C@H]2CCc3c(sc4ncnc(Nc5cnc6[nH]ncc6c5)c34)C2)C1 [Example 101, [(3R)-3-(Dimethylamino)pyrrolidin-1-yl][(7S)-4-(1H-pyrazolo[3,4-b]pyridin-5-ylamino)-5,6,7,8-tetrahydro[1]benzothieno[2,3-d]pyrimidin-7-yl]methanone]	4.6
O=C([C@H]1CCc2c(sc3ncnc(Nc4cnc5[nH]ncc5c4)c23)C1)N1CCOCC1 [Example 102, Morpholin-4-yl[(7S)-4-(1H-pyrazolo[3,4-b]pyridin-5-ylamino)-5,6,7,8-tetrahydro[1]benzothieno[2,3-d]pyrimidin-7-yl]methanone]	27
C[C@@H]1COCCN1C(=O)[C@H]1CCc2c(sc3ncnc(Nc4cnc5[nH]ncc5c4)c23)C1 [Example 103, [(3R)-3-Methylmorpholin-4-yl][(7S)-4-(1H-pyrazolo[3,4-b]pyridin-5-ylamino)-5,6,7,8-tetrahydro[1]benzothieno[2,3-d]pyrimidin-7-yl]methanone]	35.8
C[C@H]1COCCN1C(=O)[C@H]1CCc2c(sc3ncnc(Nc4cnc5[nH]ncc5c4)c23)C1 [Example 104, [(3S)-3-Methylmorpholin-4-yl][(7S)-4-(1H-pyrazolo[3,4-b]pyridin-5-ylamino)-5,6,7,8-tetrahydro[1]benzothieno[2,3-d]pyrimidin-7-yl]methanone]	28.7
C[C@@H]1CN(C(=O)[C@H]2CCc3c(sc4ncnc(Nc5cnc6[nH]ncc6c5)c34)C2)C[C@H](C)O1 [Example 105, [(2R,6S)-2,6-Dimethylmorpholin-4-yl][(7S)-4-(1H-pyrazolo[3,4-b]pyridin-5-ylamino)-5,6,7,8-tetrahydro[1]benzothieno[2,3-d]pyrimidin-7-yl]methanone]	18.1
CN1CCN(C(=O)[C@H]2CCc3c(sc4ncnc(Nc5cnc6[nH]ncc6c5)c34)C2)CC1 [Example 106, (4-Methylpiperazin-1-yl)[(7S)-4-(1H-pyrazolo[3,4-b]pyridin-5-ylamino)-5,6,7,8-tetrahydro[1]benzothieno[2,3-d]pyrimidin-7-yl]methanone]	20.4
CN(C)C1CCN(C(=O)[C@H]2CCc3c(sc4ncnc(Nc5cnc6[nH]ncc6c5)c34)C2)CC1 [Example 107, [4-(Dimethylamino)piperidin-1-yl][(7S)-4-(1H-pyrazolo[3,4-b]pyridin-5-ylamino)-5,6,7,8-tetrahydro[1]benzothieno[2,3-d]pyrimidin-7-yl]methanone]	13.3
COc1nc2[nH]ncc2cc1Nc1ncnc2sc3c(c12)CC[C@H](C(=O)N1CC(C#N)C1)C3 [Example 108, 1-({(7S)-4-[(6-Methoxy-1H-pyrazolo[3,4-b]pyridin-5-yl)amino]-5,6,7,8-tetrahydro[1]benzothieno[2,3-d]pyrimidin-7-yl}carbonyl)azetidine-3-carbonitrile]	0.7
COc1nc2[nH]ncc2cc1Nc1ncnc2sc3c(c12)CC[C@H](C(=O)N1CC2(COC2)C1)C3 [Example 109]	0.7
COc1nc2[nH]ncc2cc1Nc1ncnc2sc3c(c12)CC[C@H](C(=O)N1CC[C@@H](N(C)C)C1)C3 [Example 110, [(3R)-3-(Dimethylamino)pyrrolidin-1-yl]{(7S)-4-[(6-methoxy-1H-pyrazolo[3,4-b]pyridin-5-yl)amino]-5,6,7,8-tetrahydro[1]benzothieno[2,3-d]pyrimidin-7-yl}methanone]	0.4
COc1nc2[nH]ncc2cc1Nc1ncnc2sc3c(c12)CC[C@H](C(=O)N1CC[C@H](N(C)C)C1)C3 [Example 111, [(3S)-3-(Dimethylamino)pyrrolidin-1-yl]{(7S)-4-[(6-methoxy-1H-pyrazolo[3,4-b]pyridin-5-yl)amino]-5,6,7,8-tetrahydro[1]benzothieno[2,3-d]pyrimidin-7-yl}methanone]	1.3
